The text below walks through data of patent publication US20250011288A1 (BRISTOL-MYERS SQUIBB COMPANY, priority 2021, published 2025).

The term EC50 denotes the concentration that produces a half-maximal response. Read a low EC50 as higher potency in that assay.

In this test the target is T1, human RXFP1 (Homo sapiens, UniProt Q9HBX9).
T1 construct: expressed in transfected cells
T1 sequence (Q9HBX9 1-757): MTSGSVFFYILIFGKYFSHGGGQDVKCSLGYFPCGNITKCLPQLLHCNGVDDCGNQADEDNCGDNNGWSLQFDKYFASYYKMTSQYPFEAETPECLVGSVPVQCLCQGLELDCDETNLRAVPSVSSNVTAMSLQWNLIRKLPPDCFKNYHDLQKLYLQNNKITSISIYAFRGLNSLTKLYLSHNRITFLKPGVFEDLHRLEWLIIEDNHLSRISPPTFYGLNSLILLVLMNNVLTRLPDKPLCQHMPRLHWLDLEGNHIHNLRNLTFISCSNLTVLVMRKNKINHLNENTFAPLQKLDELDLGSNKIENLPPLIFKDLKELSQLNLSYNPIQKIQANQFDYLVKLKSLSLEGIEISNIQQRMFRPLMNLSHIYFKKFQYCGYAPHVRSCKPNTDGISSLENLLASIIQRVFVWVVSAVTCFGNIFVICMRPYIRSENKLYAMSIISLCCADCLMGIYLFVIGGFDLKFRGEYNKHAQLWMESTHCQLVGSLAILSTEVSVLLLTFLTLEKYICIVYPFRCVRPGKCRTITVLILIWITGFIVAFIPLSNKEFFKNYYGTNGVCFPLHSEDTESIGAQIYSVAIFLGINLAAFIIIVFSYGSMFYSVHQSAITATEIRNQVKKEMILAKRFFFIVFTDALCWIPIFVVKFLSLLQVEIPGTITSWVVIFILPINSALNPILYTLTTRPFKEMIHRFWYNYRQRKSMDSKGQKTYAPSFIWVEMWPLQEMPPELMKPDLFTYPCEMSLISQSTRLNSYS
As to the kind of experiment: human RXFP1 (hRXFP1) HEK293 cAMP assay (HTRF). The following applies: HEK293 cells stably expressing human RXFP1, 30 min at room temperature. Format: cell-based. In a few lines:
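Intracellular cAMP was quantified by HTRF after a 30 min room-temperature exposure of hRXFP1-HEK293 cells (1500/well) to compound at 0.010 nM–50 µM final, 2% DMSO. Buffer was HBSS with 20 mM HEPES, 0.05% BSA and 0.5 mM IBMX; values came from a 4-parameter logistic fit.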
On the technique in general: cAMP levels reflect the balance of adenylyl cyclase and phosphodiesterase activity.

For the compound `COc1ncc(C2=NO[C@H]3C[C@H](CO)CN23)cc1C(=O)N[C@@H]1C2CCC(/C2=C/C2CC2)[C@@H]1C(=O)N[C@H](C)C1(C)CC1` (stereo partly drawn) [Example 107, N-((1R,2R,3S, 4R,Z)-7-(cyclopropyl-methylene)-3-(((R)-1-(1-methylcyclopropyl)ethyl)carbamoyl)bicyclo[2.2.1]heptan-2-yl)-5-((6S,7aS)-6-(hydroxymethyl)-5,6,7,7a-tetrahydropyrrolo [1,2-d][1,2,4]oxadiazo 1-3-yl)-2-methoxynicotinamide], the response was half-maximal at 2.6 nM (EC50). Next, `COc1ncc(C2=NOC3CC(C(O)C(F)(F)F)CC23)cc1C(=O)N[C@H]1[C@@H](C(=O)NC23CC(C#N)(C2)C3)[C@H]2CC[C@@H]1/C2=C\C1CC1` (stereo partly drawn) [Example 108, N-((1R,2R,3S,4R,Z)-3-((3-cyanobicyclo [1.1.1]pentan-1-yl)carbamoyl)-7-(cyclopropyl-methylene)bicyclo[2.2.1]heptan-2-yl)-2-methoxy-5-(5-(2,2,2-trifluoro-1-hydroxyethyl)-3a,5,6,6a-tetrahydro-4H-cyclopenta[d]isoxazol-3-yl)nicotinamide]: 3.5 nM; `COc1ncc(C2=NOC3CC(C(C)(C)O)CC23)cc1C(=O)N[C@H]1[C@@H](C(=O)Nc2ccc(F)c(C(F)(F)F)c2)[C@H]2CC[C@@H]1/C2=C\C1CC1` (stereo partly drawn) [Example 109, N-((1R,2R,3S,4R,Z)-7-(cyclopropylmethylene)-3-((4-fluoro-3-(trifluoromethyl)phenyl)carbamoyl)bicyclo[2.2.1]heptan-2-yl)-5-(5-(2-hydroxypropan-2-yl)-3a,5,6,6a-tetrahydro-4H-cyclopenta[d]isoxazol-3-yl)-2-methoxynicotinamide]: 2.7 nM.

As for `COc1ncc(C2=NOC3CC(C(C)O)CC23)cc1C(=O)N[C@H]1[C@@H](C(=O)Nc2ccc(F)c(C(F)(F)F)c2)[C@H]2CC[C@@H]1/C2=C\C1CC1` (stereo partly drawn) [Example 110, N-((1R,2R,3S, 4R,Z)-7-(cyclopropyl-methylene)-3-((4-fluoro-3-(trifluoromethyl)phenyl)carbamoyl)bicyclo[2.2.1]heptan-2-yl)-5-(5-(1-hydroxyethyl)-3a,5,6,6a-tetrahydro-4H-cyclopenta[d]isoxazol-3-yl)-2-methoxy-nicotinamide], a half-maximal response (EC50) required 3.5 nM.

For `COc1ncc(C2=NOC3CC(C(O)C4CC4)CC23)cc1C(=O)N[C@H]1[C@@H](C(=O)Nc2ccc(F)c(C(F)(F)F)c2)[C@H]2CC[C@@H]1/C2=C\C1CC1` (stereo partly drawn) [Example 111, 5-(5-(cyclopropyl (hydroxy)methyl)-3a,5,6,6a-tetrahydro-4H-cyclopenta[d]isoxazol-3-yl)-N-((1R,2R,3S,4R,Z)-7-(cyclopropyl-methylene)-3-((4-fluoro-3-(trifluoromethyl)phenyl)carbamoyl)bicyclo[2.2.1]heptan-2-yl)-2-methoxynicotinamide], a half-maximal response (EC50) required 3.6 nM. For `COc1ncc(C2=NOC3CC(C(C)O)CC23)cc1C(=O)N[C@H]1[C@@H](C(=O)Nc2ccc(F)c(C(F)(F)F)c2)[C@H]2CC[C@@H]1/C2=C\C1CC1` (stereo partly drawn) [Example 112, N-((1R,2R,3S,4R,Z)-7-(cyclopropyl-methylene)-3-((4-fluoro-3-(trifluoromethyl)phenyl)carbamoyl)bicyclo[2.2.1]heptan-2-yl)-5-(5-(1-hydroxyethyl)-3a,5,6,6a-tetrahydro-4H-cyclopenta[d]isoxazol-3-yl)-2-methoxynicotinamide], the EC50 came out at 3.9 nM. Take `CCC(O)C1CC2ON=C(c3cnc(OC)c(C(=O)N[C@H]4[C@@H](C(=O)Nc5ccc(F)c(C(F)(F)F)c5)[C@H]5CC[C@@H]4/C5=C\C4CC4)c3)C2C1` (stereo partly drawn) [Example 113, N-((1R,2R,3S,4R,Z)-7-(cyclopropyl-methylene)-3-((4-fluoro-3-(trifluoromethyl)phenyl)carbamoyl)bicyclo[2.2.1]heptan-2-yl)-5-(5-(1-hydroxypropyl)-3a,5,6,6a-tetrahydro-4H-cyclopenta[d]isoxazol-3-yl)-2-methoxynicotinamide]: the EC50 turned out to be 4.3 nM. The EC50 values of the last two compounds are within 1.5-fold of each other. With `COc1ncc(C2=NOC3CC(CO)CC23)cc1C(=O)N[C@H]1[C@@H](C(=O)N[C@H](C)C2(C)CC2)[C@H]2CC[C@@H]1/C2=C\C(F)(F)F` (stereo partly drawn) [Example 115, 5-(5-(hydroxymethyl)-3a,5,6,6a-tetrahydro-4H-cyclopenta[d]isoxazol-3-yl)-2-methoxy-N-((1R,2R,3S,4R,Z)-3-(((R)-1-(1-methylcyclopropyl)ethyl)carbamoyl)-7-(2,2,2-trifluoroethylidene)bicyclo[2.2.1]heptan-2-yl)nicotinamide] the figure was 2.1 nM; with `COc1ncc(C2=NOC3CC(CO)CC23)cc1C(=O)N[C@H]1[C@@H](C(=O)N[C@H](C)C2(C)CC2(F)F)[C@H]2CC[C@@H]1/C2=C\C(F)(F)F` (stereo partly drawn) [Example 116, N-((1R,2R,3S,4R,Z)-3-(((1R)-1-(2,2-difluoro-1-methylcyclopropyl)ethyl)carbamoyl)-7-(2,2,2-trifluoroethylidene)bicyclo[2.2.1]heptan-2-yl)-5-(5-(hydroxymethyl)-3a,5,6,6a-tetrahydro-4H-cyclopenta[d]isoxazol-3-yl)-2-methoxynicotinamide], 2.7 nM; with `COc1ncc(C2=NOC3CC(O)CC23)cc1C(=O)N[C@H]1[C@@H](C(=O)Nc2ccc(F)c(C(F)(F)F)c2)[C@H]2CC[C@@H]1/C2=C\C1CCC1` (stereo partly drawn) [Example 117, N-((1R,2R,3S,4R,Z)-7-(cyclobutyl-methylene)-3-((4-fluoro-3-(trifluoromethyl)phenyl)carbamoyl)bicyclo[2.2.1]heptan-2-yl)-5-(5-hydroxy-3a,5,6,6a-tetrahydro-4H-cyclopenta[d]isoxazol-3-yl)-2-methoxynicotinamide], 3.5 nM. On to `COc1ncc(C2=NOC3CC(CO)CC23)cc1C(=O)N[C@H]1[C@@H](C(=O)N[C@H](C)C2(C)CC2(F)F)[C@H]2CC[C@@H]1/C2=C\C(F)(F)F` (stereo partly drawn) [Example 118, N-((1R,2R,3S,4R,Z)-3-(((1R)-1-(2,2-difluoro-1-methylcyclopropyl)ethyl)carbamoyl)-7-(2,2,2-trifluoroethylidene)bicyclo[2.2.1]heptan-2-yl)-5-(5-(hydroxymethyl)-3a,5,6,6a-tetrahydro-4H-cyclopenta[d]isoxazol-3-yl)-2-methoxynicotinamide], for which a half-maximal response (EC50) required 4 nM.

For the compound `COc1ncc(C2=NOC3COCC23)cc1C(=O)N[C@H]1[C@@H](C(=O)N[C@H](C)C2(C)CC2)[C@H]2CC[C@@H]1/C2=C\c1csc(C(F)(F)F)n1` (stereo partly drawn) [Example 119, 2-methoxy-N-((1R,2R,3S,4R,Z)-3-(((R)-1-(1-methylcyclopropyl)ethyl)carbamoyl)-7-((2-(trifluoromethyl)thiazol-4-yl)methylene)bicyclo[2.2.1]heptan-2-yl)-5-(3a,4,6,6a-tetrahydrofuro[3,4-d]isoxazol-3-yl)nicotinamide], the half-maximal effective concentration (EC50) came to 3.9 nM. `COc1ncc(C2=NOC3CC(CO)CC23)cc1C(=O)N[C@H]1[C@@H](C(=O)Nc2ccc(F)c(C(F)(F)F)c2)[C@H]2CC[C@@H]1/C2=C\c1csc(C)n1` (stereo partly drawn) [Example 120, N-((1R,2R,3S,4R,Z)-3-((4-fluoro-3-(trifluoromethyl)phenyl)carbamoyl)-7-((2-methylthiazol-4-yl)methylene)bicyclo [2.2.1]heptan-2-yl)-5-(5-(hydroxymethyl)-3a,5,6,6a-tetrahydro-4H-cyclopenta[d]isoxazol-3-yl)-2-methoxynicotinamide]: the midpoint of the response, the EC50, lay at 4.8 nM.
